Experimental data: patent US7972800B2, “Screening method for binding property or signal transduction alterations” (Takeda Pharmaceutical Company Limited, priority 2003, dated 2011)

What was measured:
[1] = system: bladder (micturition) of conscious rats; assay: Cystometry in conscious rats with intravesical infusion; format: in vivo, rat; settings: female SD rats, protamine sulfate 10 mg/mL in PBS infused into the bladder for an hour
Protocol: Female SD rats of 9-10 weeks old were anaesthetized by intramuscular injection with 0.1 ml/100 g of a solution obtained by mixing ketamine (50 mg/mL) and xylazine (20 mg/mL) in 5:1. The bladder was then exposed via a midline incision and a hole was made with a 20-G needle to insert a polyethylene tube (PE-50), which tube was sutured to the bladder with cotton thread. The polyethylene tube cannulated into the bladder was cut at a length of about 1 cm, which was connected to a silicon tube (No. 00) and exposed to the dorsum through the skin. The animals were housed in individual cages until they were used for the experiments.
One day after the surgery, the animal was anesthetized with halothane and placed in Ballman cages under restricted conditions. After a three-way cock was connected to the tube cannulated into the bladder, a saline infusion tube was connected to a cystometry tube (resistance to infusion). An electronic scale was placed under the Ballman cages and the micturition volume was measured at the same time. When the anesthetic completely worn off, the infusion of saline into the bladder commenced and the bladder pressure and micturition volume were recorded on a personal computer via an A-D converter (MP-100, BIOPAC Systems) and analyzed using a dedicated software (AcqKnowledge, BIOPAC Systems).
Saline was infused into the bladder at the rate of 6 ml/hr and the infusion was continued for 1 or 2 hours until stable micturition was recorded. In order to enhance the permeability of a drug into the bladder, protamine sulfate (10 mg/mL in PBS) was infused into the bladder for an hour (Chuang Y, et. al., 2003, Urology, 63, 664-670). […] Then, saline was reinfused into the bladder and micturition was recorded at least 2 hours until protamine was completely washed off. […] Mean micturition intervals during from about 30 minutes to about 60 minutes after starting the infusion of CuCl2 were calculated to find a ratio to mean micturition intervals for about 30 minutes before the infusion of CuCl2 (% of the pre-value).

[2] = system: CHO cells where the receptor was not expressed or GPCR other than GPR39 was expressed; format: cell-based; settings: FLIPR; control cells
rat GPR39 = format: cell-based; settings: FLIPR, Fluo-3AM (FIG. 9 through FIG. 13)
Protocol: (§1) Using the CHO cell line where rat GPR39 was stably expressed, the agonist activity of metal ions was detected using FLIPR in terms of the intracellular calcium-increasing reaction as an indicator. The CHO cell line used, wherein rat GPR39 was stably expressed, was cultured in HAM's αMEM (Invitrogen Corp.) containing 10% calf fetal serum (Invitrogen Corp.). On the day before the assay was conducted, the human GPR39-expressing CHO cell line was cultured in a culture flask to reach a confluent state. After washing with PBS, the cells were scraped off using trypsin and centrifuged for recovery. The cells were then suspended in medium and the suspension was adjusted to 3×10^5 cells/ml. Then, the suspension was dispensed onto a black walled 96-well plate (Costar) in 100 μl each per well, followed by incubation overnight in a CO2 incubator.
(§2) On the day when the assay was conducted, various test samples were added to the cells and the changes of intracellular calcium levels in this case were determined by FLIPR (Molecular Device). In order to determine the changes in intracellular calcium levels on FLIPR, the cells were pre-treated by the following procedures. First, for the purpose of adding a fluorescent dye Fluo-3AM (DOJIN) to the cells or washing the cells immediately before the FLIPR assay, an assay buffer was prepared. A solution was prepared by adding 20 ml of 1M HEPES (pH 7.4) (DOJIN) to 1000 ml of HBSS (Invitrogen Corp.) (hereinafter HBSS/HEPES solution), to which solution was added 10 ml of a solution mixture obtained by dissolving 710 mg of Probenecid (Sigma) in 5 ml of 1N NaOH and further adding 5 ml of HBSS/HEPES solution thereto. The resulting solution was used as the assay buffer. Next, 50 μg of Fluo-3AM was dissolved in 21 μl of DMSO (DOJIN) and an equal volume of 20% Pluronic acid (Molecular Probes) was added to and mixed with the solution. The mixture was then added to 10.6 ml of the assay buffer supplemented with 105 μl of fetal calf serum to prepare a fluorescent dye solution. The medium for the CHO cells where human GPR39 was stably expressed was removed. Immediately thereafter, the fluorescent dye solution was dispensed in 100 μl each/well and the cells were incubated in a CO2 incubator for an hour so that the fluorescent dye was taken up into the cells. The cells after the incubation was washed with the assay buffer described above and set on FLIPR. A test sample to be added to the CHO cells where rat GPR39 was stably expressed was prepared using the assay buffer and set on FLIPR at the same time. Following the pre-treatment above, the changes in intracellular calcium levels after the addition of each test sample were determined by FLIPR.

mouse GPR39 = molecular target: T1, mouse GPR39 (Mus musculus, UniProt Q5U431, T447P); format: cell-based; settings: FLIPR, Fluo-3AM (FIG. 14 through FIG. 18)
T1 construct: expressed in transfected cells; host or cells: CHO cells, vector pAKKO-111H
T1 sequence (Q5U431 1-456 T447P): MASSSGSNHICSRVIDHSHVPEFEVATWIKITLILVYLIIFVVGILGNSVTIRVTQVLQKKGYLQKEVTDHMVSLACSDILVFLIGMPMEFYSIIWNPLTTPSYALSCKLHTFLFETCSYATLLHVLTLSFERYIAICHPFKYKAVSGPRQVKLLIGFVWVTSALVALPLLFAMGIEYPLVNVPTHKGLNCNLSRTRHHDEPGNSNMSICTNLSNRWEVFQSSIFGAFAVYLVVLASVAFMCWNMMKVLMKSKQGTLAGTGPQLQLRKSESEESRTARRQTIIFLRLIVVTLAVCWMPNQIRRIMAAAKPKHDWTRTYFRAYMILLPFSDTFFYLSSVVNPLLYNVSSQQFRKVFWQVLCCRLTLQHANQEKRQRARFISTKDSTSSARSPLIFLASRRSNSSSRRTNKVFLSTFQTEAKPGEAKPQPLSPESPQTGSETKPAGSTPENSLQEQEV
Protocol: as §1, §2
Using the CHO cell line where mouse GPR39 was stably expressed, the agonist activity of metal ions was detected on FLIPR in accordance with the procedures described in EXAMPLE 5, in terms of the intracellular calcium-increasing reaction as an indicator.

human GPR39 = molecular target: T2, human GPR39 (Homo sapiens, UniProt O43194); format: cell-based; set-up: expressed in transfected cells; host or cells: CHO cells, vector pAKKO-111H; settings: FLIPR, Fluo-3AM; metal salt added, 10-300 μM (FIGS. 1-4)
T2 sequence (O43194 1-453): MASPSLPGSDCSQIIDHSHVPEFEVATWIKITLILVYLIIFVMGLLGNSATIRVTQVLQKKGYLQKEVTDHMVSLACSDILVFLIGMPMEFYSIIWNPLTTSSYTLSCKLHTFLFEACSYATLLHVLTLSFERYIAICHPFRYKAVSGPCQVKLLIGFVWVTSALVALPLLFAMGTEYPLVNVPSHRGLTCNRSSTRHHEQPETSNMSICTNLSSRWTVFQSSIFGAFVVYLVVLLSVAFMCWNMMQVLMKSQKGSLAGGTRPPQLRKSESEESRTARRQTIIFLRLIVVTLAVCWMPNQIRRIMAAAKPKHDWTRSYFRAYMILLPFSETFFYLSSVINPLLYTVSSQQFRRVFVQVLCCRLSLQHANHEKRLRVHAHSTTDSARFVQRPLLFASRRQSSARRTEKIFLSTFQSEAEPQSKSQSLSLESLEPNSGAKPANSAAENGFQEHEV
Protocol: The human GPR39-GFP expression vector-transfected CHO cell line produced in EXAMPLE 1 (CHO/hGPR39-GFP) was diluted in 3×10^4 cells/100 μl. The dilution was dispensed onto a Black walled 96-well plate (Costar) in 100 μl each per well, followed by incubation overnight in a CO2 incubator. Changes in intracellular calcium levels were determined by the following method using FLIPR (Molecular Device). In 21 μl of DMSO (DOJIN), 50 μg of Fluo-3AM (DOJIN) was dissolved and an equal volume of 20% Pluronic acid (Molecular Probes) was added to the solution. After mixing them, the resulting mixture was added to 10.6 ml of assay buffer [prepared by adding 20 ml of 1M HEPES (pH 7.4) (DOJIN) to HBSS (Invitrogen Corp.) and further adding to the solution 10 ml of a solution mixture, which mixture was prepared by dissolving 710 mg of Probenecid (Sigma) in 5 ml of 1N NaOH and then adding thereto 5 ml of the HBSS/HEPES solution above] supplemented with 105 μl of fetal calf serum to prepare a fluorescent dye solution. The medium in the cell plate was removed. Immediately thereafter, the fluorescent dye solution was dispensed in 100 μl each/well and the cells were incubated in a CO2 incubator for an hour so that the fluorescent dye was taken up into the cells. The cells after the incubation were washed with the assay buffer described above and set on FLIPR. Compounds of metal elements to be added to the cells were diluted to the respective concentration with the assay buffer. The dilutions were dispensed onto plates for ligands and set on FLIPR. Following the pre-treatment above, changes in intracellular calcium levels after addition of metal elements were determined by FLIPR to study agonist activities.

Compound	micturition intervals compared to those prior to the infusion [1]	intracellular calcium response in CHO cells without the receptor or with GPCR other than GPR39 [2]	intracellular calcium levels of CHO/rGPR39 (rat GPR39)	intracellular calcium levels of CHO/mGPR39 (mouse GPR39)	intracellular calcium levels of CHO/hGPR39-GFP (human GPR39)
protamine sulfate	Any substantial change in micturition intervals was noted	–	–	–	–
[Cl][Cd][Cl] [cadmium chloride]	–	no such response was observed	dose-dependently increased	dose-dependently increased	dose-dependently increased
[Cl-].[Cl-].[Zn+2] [zinc chloride]	–	no such response was observed	dose-dependently increased	dose-dependently increased	dose-dependently increased
[Cl][Co][Cl] [cobalt chloride]	–	–	dose-dependently increased	dose-dependently increased	–
